pIC50: −log10 of the molar value.
Tests used:
[1] = Inhibition of c-Met-mediated scattering in HGF-stimulated human DU145 cells
[2] = Inhibition of c-Met-mediated cell migration of human A549 cells by would healing

Compound `Cn1cnc(-c2cc3nccc(Oc4ccc(NC(=O)c5cnn(-c6ccccc6)c5C(F)(F)F)cc4F)c3s2)c1` [N-(3-fluoro-4-(2-(1-methyl-1H-imidazol-4-yl)thieno[3,2-b]pyridin-7-yloxy)phenyl)-1-phenyl-5-(trifluoromethyl)-1H-pyrazole-4-carboxamide] has a pIC50 [1] of 5.70 and a pIC50 [2] of 6.40.

Source: BindingDB's records for doi:10.1016/j.bmcl.2010.03.073 (Methylgene, 2010)
